We go through one molecule from patent US10675266B2, “Compounds and methods for treating autism spectrum disorders” (BIOCODEX, priority 2008, dated 2020).

SMILES strings stand for the structures.

One data set deals with BALB/c mice. Briefly: Social investigatory behaviour of BALB/c test mice towards a juvenile DBA/2J stimulus mouse. In kind it is in vivo. The following applies: for duration of social contacts: 100, 200 and 300 mg/kg i.p. once daily for 5 days. As to the method: (§1) The purpose of this study was to examine the effects of stiripentol on the social behavioural in BALB/c mice compared to C57BL/6J (C57) inbred mice. The social investigatory behaviour of mice was measured by the amount of time that the “test” mouse (BALB/c and C57 mice) engaged in social contact with the “stimulus” mouse (juvenile DBA/2J mice strain).
(§2) All male mice (BALB/c, C57 and DBA/2J) were purchased from the Charles River breeding (Les Oncins-France). BALB/c and C57 mice were 8 weeks of age upon arrival at the laboratory. They were housed in temperature-controlled rooms (22±2° C.), separately by strain, with 5 mice per polycarbonate cage (type “S” cage: 265 mm L×160 mm W×140 mm H) and provided with food (A04-SAFE, France) and tap water ad libitum. Behavioral testing was conducted during the light period of a 12-h light:12-h dark cycle (lights on at 7 a.m.). The mice were used for behavioural testing starting 5-7 days after arrival at the laboratory whereas juvenile DBA/2J mice were used at 3-weeks of age and arrived at the laboratory 5 days prior testing. The experiments were conducted in accordance with the European Recommendations (directive 86/609/ECC) for the care and use of laboratory animals.
(§3) The general procedure was conducted according to the protocol described by Fishkin and Winslow (1997) Psychopharmacology (Berl) 132:335-341 with slight modifications.
Twenty-four hours prior to testing, BALB/c and C57 mice were individually housed in clear cage (type “S” cage). Food and water remained freely available. Individual housing was provided firstly to permit resident male mice an opportunity to scent mark and habituate to their home cage and, secondly to heighten the motivation of “test” mice for social interaction. All the animals were allowed to acclimate to the test room (natural lighting) for at least 1 h prior to testing which was conducted between 9 a.m. and 3 p.m.
The juvenile DBA/2J mouse was placed into BALB/c or C57 mouse cage for a 10-min observation period. The DBA/2J mouse served as “stimulus” mouse for one BALB/c mouse and one C57BL mouse. For each contact, an observer, sitting about 1 m from the cage; recorded the latency to the first contact (or approach) (in sec) towards the “stimulus” mouse and the time (in sec) that the “test” mouse spent in social investigatory behaviour. Nosing, sniffing, pawing, grooming and close following of the “stimulus” mouse by the young adult mouse were considered to be signs of social investigation. […]
(§4) All data represent the mean±standard error of mean (S.E.M.). Treatment effects on mean latency to the first contact and on mean duration of social investigation were analyzed with two-way analysis of variance (ANOVA) with the strain and the treatment as factors. […]

The test system of the next data set is C57 mice. Briefly: Social investigatory behaviour of C57 test mice towards a juvenile DBA/2J stimulus mouse. Type of data set: in vivo. As to the method:
as §1, §2, §3
Twenty-four hours prior to testing, BALB/c and C57 mice were individually housed in clear cage (type “S” cage). […]
The juvenile DBA/2J mouse was placed into BALB/c or C57 mouse cage for a 10-min observation period. […] For each contact, an observer, sitting about 1 m from the cage; recorded the latency to the first contact (or approach) (in sec) towards the “stimulus” mouse and the time (in sec) that the “test” mouse spent in social investigatory behaviour. […]
as §4

The subject of a further data set is patients. In words: Observation of autism symptoms in patients after initiation of treatment. Type of data set: in vivo, human. An excerpt: This observation can be confirmed by studies in animal models that mimic characteristic features of autism such as the models described by Moy S S et al, Behav. Brain Res. 176:4, 2007 and McFarlane H G et al, Genes, Brain and Behavior, 1601:1, 2007.

In data set [1] the test system is recombinant GABA-A receptors. The following applies: cited from earlier work.
The next data set relates to SMEI patients. The note with it: cited from earlier work.
The next data set deals with animal models. The following applies: several animal models; cited from earlier work.
The conditions of data set [2]: doses 100, 200 and 300 mg/kg i.p.; from literature (Gasior 1999; Vincent 1991); cited from earlier work.

For `CC(C)(C)C(O)/C=C/c1ccc2c(c1)OCO2` (racemic) [Stiripentol, 1-penten-3-ol, 1-(1,3-benzodioxol)-4,4-dimethyl], the “latency to the first contact” value in the data set with BALB/c mice (100, 200, 300 mg/kg i.p. once daily for 5 days, last dose 60 min before testing, FIG. 1) is reported as “trend for decrease”; with C57 mice (up to 300 mg/kg i.p. once daily for 5 days, FIG. 1), “without effects”. Also, the “duration of social contacts” value in the data set on BALB/c mice (FIG. 2) is “increased duration of social contacts”; with BALB/c mice (FIG. 2, listed as stiripentol), “significantly increased”; with C57 mice (300 mg/kg i.p. once daily for 5 days, FIG. 2), “significantly lowered”. Also, in the data set on BALB/c mice (sub-chronic treatment 100, 200 or 300 mg/kg i.p. x 5 days), the sociability result is reported as “enhanced the sociability”. Besides, in the data set on C57 mice (300 mg/kg i.p. once daily for 5 days), the sedative effects result is “sedative effects in C57 mice began to appear”. Moreover, in the data set on patients, the autism symptoms entry is “resolution of autism symptoms”. Also, the “modulation of the GABA receptor” value in data set [1] (Fisher, Neuropharmacology 2009) is “positive allosteric modulator”. Besides, the “potentiation by subunit subtype” value in data set [1] (alpha subunit subtypes compared) is reported as “alpha 3 subtype showed the greatest potentiation”. The response rate entry in the data set on SMEI patients (SMEI patients, 50 mg/kg/day) was “high response rate”. For the same molecule, the “efficacy in double blind controlled clinical trials” value in the data set on SMEI patients (two double blind controlled clinical trials (Chiron, Lancet 2000)) is recorded as “high efficacy”. For the same molecule, in the data set on animal models, the anticonvulsant activity result is on record as “has shown anticonvulsant activity”. Moreover, the adverse motor effects entry in data set [2] is listed as “devoid of any adverse motor effects”.
